Test results from paper PMC8092209, “Structural Basis of Ligand Selectivity by a Bacterial Adhesin Lectin Involved in Multispecies Biofilm Formation” (mBio, 2021).
Where “and” joins values, the source holds several entries; their conditions need not be identical. Equal values may be shown once.

Columns and labels:
MpPA14 [1] = biological target: T1, MpPA14 (Marinomonas primoryensis, UniProt A1YIY3); test: Isothermal titration calorimetry; assay type: binding; details: 30°C; for ΔH (enthalpy) / ΔS (entropy) / binding stoichiometry (N value): ITC; for binding stoichiometry (N value): one-binding-site model; for Kd: Kd (dissociation constant, ITC), free sugar in solution
T1 sequence (A1YIY3 entry or part of it): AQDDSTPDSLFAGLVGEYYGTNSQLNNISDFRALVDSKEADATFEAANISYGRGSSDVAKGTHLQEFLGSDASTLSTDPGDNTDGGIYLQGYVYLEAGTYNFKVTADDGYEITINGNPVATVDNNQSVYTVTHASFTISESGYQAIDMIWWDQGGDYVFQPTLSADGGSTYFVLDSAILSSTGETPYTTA
From the text: The ITC measurements produced rectangular hyperbolic curves for all three simple saccharides, and fitted well to a one-binding-site model with calculated binding stoichiometry (N) values being close to 1 ([12], [21]). […] However, this is to be expected, because the dextran beads used in the competition assay have multiple binding sites nearby that attract the lectin, whereas the calorimetry was done with free sugars in solution. […] In general, the affinity of lectins for monosaccharides (Kd values) lies within the high micromolar to millimolar range ([8], [30], [31]). […] Furthermore, negative enthalpy (ΔH) and entropy (ΔS) contributions were calculated for all three carbohydrates when they bound to MpPA14, which indicated the binding was driven primarily by polar interaction such as the formation of hydrogen and ionic bonds rather than by hydrophobic interactions. This was consistent with the observation that the Ca^2+-dependent ligand-binding site of MpPA14 consisted of mainly polar and charged amino acids without any residues with large hydrophobic side chains. We therefore acquired detailed structural information to study MpPA14 ligand recognition.
Isothermal titration calorimetry (ITC) measurements were performed at 30°C with a MicroCal VP-ITC instrument (Malvern). […] Sugars were automatically added by a rotating syringe (400 rpm) at 5-min intervals into the MpPA14 solution for a total of 50 injections. The data were analyzed with Origin software version 5.0 (MicroCal).

MpPA14 [2] = biological target: T1, MpPA14; test: Dextran-based comparative competition assay (MpPA14); assay type: binding
From the text: To gain insight into the binding specificity of MpPA14, we investigated the relative affinity of various monosaccharides for the lectin by a comparative competition assay ([12]). MpPA14 bound to Superdex resin was competitively released into solution by the progressive addition of free sugars. The released protein concentrations measured by absorbance at 280 nm were plotted as a function of free sugar concentration to produce semiquantitative binding curves (Fig. 1A and B). The apparent dissociation constant (Kdapp) calculated from these binding curves was used as a relative measure of affinity for each assayed sugar (Table 1). […] D-Ribose bound […] more strongly than its derivative 2-deoxy-D-ribose (Kdapp of 6.8 mM as opposed to 18 mM; Fig. 1B and Table 1).
(§1) The dextran resin competition assay was performed as previously described for MhPA14 ([12]). Briefly, Superdex 200 (S200) resin was washed twice with 50 mM Tris-HCl (pH 9), 150 mM NaCl, and 5 mM CaCl2. One ml of 1 mg/ml MpPA14 with green fluorescent protein (GFP) fused to its N terminus (GFP-MpPA14) or VcPA14 labeled with FITC was suspended with 300 μl of equilibrated Superdex 200 (S200) resin. Following an incubation period with gentle mixing, the S200 resin bound with GFP-MpPA14 was pelleted by centrifugation. The pellet was washed twice with 50 mM Tris-HCl (pH 9), 150 mM NaCl, and 5 mM CaCl2, and the A280 of the supernatant from the second wash was used as the baseline reading. Next, after resuspension in the same buffer, aliquots of 1.67 μmol saccharide were sequentially added to the solution six or seven times, with the A280 of the supernatant being measured after each addition to quantify the release of lectin. The final addition of saccharide was […]. Data from the dextran affinity assay were plotted using GraphPad Prism after subtracting the background. Next, the data were fitted to a nonlinear regression of one-site-specific binding, which follows the model y/Bmax = x/(Kd + x), with Bmax as the maximum specific binding and Kd as the equilibrium binding constant.

VcPA14 = test: Dextran-based comparative competition assay (VcPA14); assay type: binding, Vibrio cholerae; details: FITC-VcPA14 on Superdex 200 resin
Method: (§2) As proof of concept for the antiadhesion strategy that targets microbial pathogens, we studied the VcPA14 lectin domain from a large 6,938-amino-acid RTX adhesin (GenBank accession number WP_154597608) of the cholera-causing bacterium, V. cholerae. As discussed, VcPA14 has a similar ligand-binding site as that of MpPA14 (Fig. S1), with key sugar-binding residues conserved (Fig. S1G).
as §1, with “Data from the dextran affinity assay were plotted using GraphPad Prism after subtracting the background. Next, the data were fitted to a nonlinear regression of one-site-specific binding, which follows the model y/Bmax = x/(Kd + x), with Bmax as the maximum specific binding and Kd as the equilibrium binding constant.” left out

[3] = system: FITC-labeled MpPA14 binding to the diatom Chaetoceros neogracile; test: Diatom binding experiment with FITC-MpPA14; assay type: cell-based
From the text: C. neogracile is a psychrophilic marine diatom found in Antarctic waters ([50]). […] Each diatom cell has 1 to 4 projections protruding from the corners. Given its photosynthetic capability, C. neogracile contains chlorophyll that is intrinsically fluorescent. […] We reason that glycans coating the diatom cell membrane present numerous end group binding sites in close proximity that can serve as a “molecular Velcro” for MpPA14 binding ([30]).
The Antarctic diatom, Chaetoceros neogracile, was cultured as previously described ([21], [50]). FITC-labeled MpPA14 or VcPA14 (FITC-MpPA14 or FITC-VcPA14, 0.2 mg/ml) in the presence or absence of sugars was incubated with diatoms in buffer (50 mM Tris-HCl [pH 9], 300 mM NaCl, and 5 mM CaCl2) with gentle mixing for 2 h. Next, diatoms were pelleted by centrifugation for 3 min at 7,000 rpm, and the resulting supernatant was discarded. This procedure was repeated three times to wash away unbound FITC-MpPA14 before the diatom pellet was finally resuspended in 20 μl buffer, which was then used to make slides for fluorescence microscopy. In a separate experiment to test if fucose could compete off the MpPA14 that was already bound to diatoms, FITC-MpPA14 was incubated with diatom for 1.5 h before fucose was added. The rest of the experiment followed the same procedure as described above.
(§3) Images were obtained using an Olympus IX83 inverted fluorescence microscope equipped with an Andor Zyla 4.2 Plus camera. Quantification of the fluorescence intensity was done using Fiji ImageJ. The corrected total cell fluorescence (CTCF) was calculated using the following formula: CTCF = integrated density − (area of selected cell × mean fluorescence of the background) ([60]). Quantification of 30 individual diatom cells was done for each treatment. Graphs were made using GraphPad Prism.

[4] = system: FITC-labeled VcPA14 binding to C. neogracile; test: Diatom binding experiment with FITC-VcPA14; assay type: cell-based, Chaetoceros neogracile; details: 0.5 mM sugar
Method: as §2
The Antarctic diatom, Chaetoceros neogracile, was cultured as previously described ([21], [50]). FITC-labeled MpPA14 or VcPA14 (FITC-MpPA14 or FITC-VcPA14, 0.2 mg/ml) in the presence or absence of sugars was incubated with diatoms in buffer (50 mM Tris-HCl [pH 9], 300 mM NaCl, and 5 mM CaCl2) with gentle mixing for 2 h. […] This procedure was repeated three times to wash away unbound FITC-MpPA14 before the diatom pellet was finally resuspended in 20 μl buffer, which was then used to make slides for fluorescence microscopy. […]
as §3, with “Graphs were made using GraphPad Prism.” left out

Structure (SMILES): CC(=O)N[C@@H]1[C@@H](O)[C@H](O)[C@@H](CO)O[C@H]1O [N-acetyl-glucosamine, N-acetylglucosamine]
- ΔH (enthalpy) (MpPA14 [1]): -15,810 ± 226.1 cal/mol
- ΔS (entropy) (MpPA14 [1]): -34.9 cal/ mol/K
- binding stoichiometry (N value) (MpPA14 [1]): 1 ± 0.0116
- Kd (MpPA14 [1]): 170 µM and ~150 µM
- Kd (MpPA14 [2]): 1.07 mM
- relative binding to VcPA14 (in words) (VcPA14): more strongly than glucose

Structure (SMILES): CC(=O)N[C@@H]1[C@@H](O)[C@@H](O)[C@@H](CO)O[C@@H]1O [N-acetyl-galactosamine]
- Kdapp (apparent dissociation constant) (MpPA14 [2]; GFP-MpPA14 bound to Superdex 200 resin released by free sugar, A280, pH 9, 5 mM CaCl2, – = no detectable binding (footnote a)): no measurable interaction
- Kd (MpPA14 [2]; GFP-MpPA14 bound to Superdex 200 resin released by free sugar, A280, pH 9, 5 mM CaCl2, – = no detectable binding (footnote a), read-out: Kdapp (apparent dissociation constant)): > 18 mM
- prevention of lectin binding to the diatom (in words) ([3]; 50 mM sugar, 0.2 mg/ml FITC-MpPA14): unable to prevent the lectin from binding the diatom
- relative binding to VcPA14 (in words) (VcPA14): cannot bind

Structure (SMILES): C[C@H](O)[C@@H](O)[C@@H](O)[C@H](O)C=O [L-Fucose, L-fucose]
- ΔH (enthalpy) (MpPA14 [1]): -11,800 ± 191.8 cal/mol
- ΔS (entropy) (MpPA14 [1]): -21.4 cal/ mol/K
- binding stoichiometry (N value) (MpPA14 [1]): 1.01 ± 0.0131
- Kd (MpPA14 [1]): 147 µM and ~150 µM
- Kd (MpPA14 [2]): 0.65 mM
- fluorescent signal displaced (competitive effect) ([3]; 0.1 mM sugar, 0.2 mg/ml FITC-MpPA14): ~40%
- effect on diatoms precoated with FITC-labeled MpPA14 (in words) ([3]; 0.5 mM sugar added after 1.5 h incubation of lectin with diatoms): resulted in the dissociation of the lectin from the cells
- fluorescent signal displaced ([3]; 0.5 mM sugar, 0.2 mg/ml FITC-MpPA14): 95%
- blocking of FITC-VcPA14 binding to C. neogracile (in words) [4]: largely blocked

Structure (SMILES): OC[C@H]1OC(O)[C@H](O)[C@@H](O)[C@@H]1O (stereo partly drawn) [Glucose]
- ΔH (enthalpy) (MpPA14 [1]): -10,880 ± 42.71 cal/mol
- ΔS (entropy) (MpPA14 [1]): -20.1 cal/ mol/K
- binding stoichiometry (N value) (MpPA14 [1]): 0.952 ± 0.0216
- Kd (MpPA14 [1]): 350 µM
- Kd (MpPA14 [2]): 1.36 mM and 1.4 mM
